As a reminder, the Kd is the equilibrium constant for the complex coming apart.

Consider one molecule from publication PMC6090075 (Acta Pharmaceutica Sinica. B, 2017).

In this test the target is low-density lipoprotein receptor (LDLR)-related protein 6 (LRP6) (Homo sapiens, UniProt O75581). Description: SPR on immobilized recombinant LRP6. The format is binding.
low-density lipoprotein receptor (LDLR)-related protein 6 (LRP6), sequence (O75581 20-1613): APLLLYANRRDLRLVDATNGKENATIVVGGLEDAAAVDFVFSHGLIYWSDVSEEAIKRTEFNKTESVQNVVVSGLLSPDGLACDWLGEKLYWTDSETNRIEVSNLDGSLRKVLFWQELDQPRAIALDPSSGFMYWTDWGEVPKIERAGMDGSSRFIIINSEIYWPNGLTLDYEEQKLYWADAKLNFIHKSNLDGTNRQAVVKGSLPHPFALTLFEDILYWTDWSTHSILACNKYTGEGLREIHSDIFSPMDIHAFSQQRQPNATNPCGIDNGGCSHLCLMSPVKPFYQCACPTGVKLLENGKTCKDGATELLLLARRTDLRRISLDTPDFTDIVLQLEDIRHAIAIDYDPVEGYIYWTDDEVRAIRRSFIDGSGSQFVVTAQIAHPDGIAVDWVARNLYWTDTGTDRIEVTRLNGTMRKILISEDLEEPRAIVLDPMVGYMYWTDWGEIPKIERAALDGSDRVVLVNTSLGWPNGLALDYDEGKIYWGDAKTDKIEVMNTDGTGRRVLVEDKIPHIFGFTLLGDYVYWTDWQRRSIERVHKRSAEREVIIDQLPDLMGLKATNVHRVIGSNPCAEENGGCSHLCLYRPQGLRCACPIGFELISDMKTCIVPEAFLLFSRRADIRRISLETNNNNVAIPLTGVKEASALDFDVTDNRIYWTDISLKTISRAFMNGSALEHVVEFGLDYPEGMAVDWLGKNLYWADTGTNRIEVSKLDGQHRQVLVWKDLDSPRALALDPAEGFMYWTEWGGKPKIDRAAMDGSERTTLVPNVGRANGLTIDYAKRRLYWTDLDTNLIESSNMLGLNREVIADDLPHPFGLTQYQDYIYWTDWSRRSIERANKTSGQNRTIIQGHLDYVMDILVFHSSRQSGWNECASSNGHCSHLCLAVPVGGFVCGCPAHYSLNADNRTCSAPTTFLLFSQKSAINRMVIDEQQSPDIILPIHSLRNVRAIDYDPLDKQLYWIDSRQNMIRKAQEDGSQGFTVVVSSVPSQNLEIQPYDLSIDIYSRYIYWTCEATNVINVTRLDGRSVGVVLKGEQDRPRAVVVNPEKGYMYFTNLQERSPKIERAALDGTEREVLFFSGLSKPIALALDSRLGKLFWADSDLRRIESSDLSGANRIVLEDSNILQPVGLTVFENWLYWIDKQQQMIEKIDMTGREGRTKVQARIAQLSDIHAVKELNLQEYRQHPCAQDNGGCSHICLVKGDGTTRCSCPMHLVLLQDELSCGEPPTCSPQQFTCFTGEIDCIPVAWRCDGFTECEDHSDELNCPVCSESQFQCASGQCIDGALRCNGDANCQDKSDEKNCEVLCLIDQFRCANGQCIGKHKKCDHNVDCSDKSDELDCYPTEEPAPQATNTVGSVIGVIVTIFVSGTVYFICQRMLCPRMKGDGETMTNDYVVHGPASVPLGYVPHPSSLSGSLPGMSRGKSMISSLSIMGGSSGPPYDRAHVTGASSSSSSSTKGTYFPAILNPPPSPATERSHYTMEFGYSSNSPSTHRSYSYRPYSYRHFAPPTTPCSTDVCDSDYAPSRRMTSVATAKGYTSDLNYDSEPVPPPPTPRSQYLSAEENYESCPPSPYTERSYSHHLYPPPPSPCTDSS

With `C=CCSSC[C@H](N)C(=O)O` [SAMC, S-allylmercaptocysteine], the Kd turned out to be 5.65 µM.
